The species entered for data set [1] is Mus musculus. Kind of data set: Effect tested against L1210 lymphoid leukemia in BDF1 mice an inoculum of l0E5 cells; Inactive. The class given is functional, organism-based.
Data set [2] relates to Mus musculus. Briefly: Compound test for increase life span in mice after 100 mg/kg ip administration. The following applies: route intraperitoneal. Type of data set: functional.
The nature of data set [3]: Anticancer activity tested against L1210 lymphoid leukemia in BDF1 mice; range 75-300. To be noted: mouse. The class given is ADME.
Data set [4] is described as follows: Half life was determined. Type of data set: ADME. The following applies: rat.
Data set [5] is described as follows: Anticancer activity tested against L1210 lymphoid leukemia in BDF1 mice; range 25-100. To be noted: mouse. The class given is ADME.

Molecules are shown by their SMILES. Active and inactive are the calls of the source. The rule behind the calls is not given here.

`CC1(C)CC(NP(=O)(O)N(CCCl)CCCl)CC(C)(C)N1O.CC1(C)CC(NP(=O)(O)N(CCCl)CCCl)CC(C)(C)N1[O]` [listing 1 of 2 here]: the outcome in data set [1] was inactive.

For the compound `CC1(C)CC(N2CCCOP2(=O)N(CCCl)CCCl)CC(C)(C)N1[O]` (configuration not stated), the result in data set [1] was inactive. In data set [2], this compound showed an Increased of 64%. The same compound came in with a Sublethal dose in data set [3] greater than 300 mg/kg. In turn, `CC1(C)CC(NP(=O)(O)N(CCCl)CCCl)CC(C)(C)N1O` had a half-life in data set [4] of 34 min. Same read-out and setting: as for `CC1(C)CC(NP(=O)(O)N(CCCl)CCCl)CC(C)(C)N1[O]`, the figure is 51 min. In the case of `CC1(C)CC(NP(=O)(O)N(CCCl)CCCl)CC(C)(C)N1O.CC1(C)CC(NP(=O)(O)N(CCCl)CCCl)CC(C)(C)N1[O]` [listing 2 of 2 here], the Sublethal dose in data set [5] was greater than 100 mg/kg.

Usually half-life stands for how long it takes for the measured level to halve. The low end stands for fast loss, the high end for slow loss.

For the origin of these results see ChEMBL document CHEMBL1122213, “Synthesis and study of a spin-labeled cyclophosphamide analogue, 3-(1-oxy-2,2,6,6-tetramethyl-4-piperidinyl)cyclophosphamide” (J Med Chem, 1982).
